According to the NIST ThermoML archive (doi:10.1021/je500314x):

Legend:
[1] = Gas, gamma densitometer
[2] = wn = mass fraction of the nth substance listed; conditions: Liquid, gamma densitometer

N#N [nitrogen]
mass density [kg/m3], [1]
Conditions | 293.2 K | 473.2 K
100 kPa | 1.15 | 0.68
600 kPa | 7.36 | 3.79
1000 kPa | – | 8
1100 kPa | 11.22 | –
1600 kPa | 17.77 | 11.8
2100 kPa | 23.64 | 14.69
2600 kPa | 27.88 | –
3100 kPa | 33.96 | 21.05
3600 kPa | 40.54 | –
4000 kPa | – | 27.65
4100 kPa | 46.43 | –
4600 kPa | 53.49 | –
5100 kPa | 58.28 | –
5600 kPa | 62.2 | –
6000 kPa | 69.11 | –

CCCCCCCC [octane] + CCCCCCC
[2]
Conditions | mass density [kg/m3]
303.1 K, 5100 kPa, w2 = 0.5 | 686.2
313.3 K, 5100 kPa, w2 = 0.5 | 678.1
323 K, 5100 kPa, w2 = 0.5 | 670
332.7 K, 5100 kPa, w2 = 0.5 | 663.3
344.1 K, 5100 kPa, w2 = 0.5 | 655.9
353.2 K, 5100 kPa, w2 = 0.5 | 645.5
362.9 K, 5100 kPa, w2 = 0.5 | 638.9
372.3 K, 5100 kPa, w2 = 0.5 | 632.3
374.7 K, 3300 kPa, w2 = 0.255 | 633.2
374.8 K, 8000 kPa, w2 = 0.255 | 640.4
380.5 K, 3200 kPa, w2 = 0.51 | 619.9
380.5 K, 8700 kPa, w2 = 0.51 | 631.1
383.2 K, 5100 kPa, w2 = 0.5 | 623.2
393 K, 5100 kPa, w2 = 0.5 | 611.8
405.1 K, 5100 kPa, w2 = 0.5 | 604.3
413.8 K, 5100 kPa, w2 = 0.5 | 592.5
424.2 K, 5100 kPa, w2 = 0.5 | 584.4
424.4 K, 4900 kPa, w2 = 0.51 | 582.4
424.5 K, 7200 kPa, w2 = 0.51 | 588
429.4 K, 3500 kPa, w2 = 0.255 | 584
429.4 K, 8300 kPa, w2 = 0.255 | 592.3
433.2 K, 5100 kPa, w2 = 0.5 | 573.5
443 K, 5100 kPa, w2 = 0.5 | 560.6
453.1 K, 5100 kPa, w2 = 0.5 | 554.4
464.5 K, 5100 kPa, w2 = 0.5 | 545.2
466.6 K, 3200 kPa, w2 = 0.51 | 535.5
466.7 K, 8600 kPa, w2 = 0.51 | 554.2
473.6 K, 5100 kPa, w2 = 0.5 | 531.6
475.8 K, 4400 kPa, w2 = 0.255 | 538.4
475.9 K, 8500 kPa, w2 = 0.255 | 554.4
484.2 K, 5100 kPa, w2 = 0.5 | 524
492.8 K, 5100 kPa, w2 = 0.5 | 508
503.1 K, 5100 kPa, w2 = 0.5 | 495.9
513.2 K, 5100 kPa, w2 = 0.5 | 483.6
518 K, 4900 kPa, w2 = 0.51 | 479.1
518 K, 7500 kPa, w2 = 0.51 | 494.8
522.4 K, 5100 kPa, w2 = 0.5 | 470.1
525.5 K, 4700 kPa, w2 = 0.255 | 473.6
525.5 K, 7300 kPa, w2 = 0.255 | 493.5
533 K, 5100 kPa, w2 = 0.5 | 451.2
543.3 K, 5100 kPa, w2 = 0.5 | 437.7
549.3 K, 5400 kPa, w2 = 0.51 | 427.9
549.4 K, 8700 kPa, w2 = 0.51 | 461.2
553 K, 5100 kPa, w2 = 0.5 | 415.1
557.2 K, 5300 kPa, w2 = 0.255 | 427.1
557.2 K, 8200 kPa, w2 = 0.255 | 460.9
563.5 K, 5100 kPa, w2 = 0.5 | 394
575.1 K, 5100 kPa, w2 = 0.5 | 372.9
583.8 K, 5100 kPa, w2 = 0.5 | 348.2
591.2 K, 5100 kPa, w2 = 0.5 | 319
